This passage reports IC50 results from patent US7834024B2, “Compositions and methods for inhibition of the JAK pathway” (Rigel Pharmaceuticals, Inc., priority 2007, dated 2010).

In general, IC50 refers to the concentration needed to halve the response being measured.

In one test the test system is Ramos B-Cell Line Stimulated with IL-4 (JAK-1 and JAK-3 / Stat-6, CD23). Briefly: Assay for Ramos B-Cell Line Stimulated with IL-4 (CD23 upregulation, FACS). It counts as cell-based. The conditions noted are these: Homo sapiens, Ramos, human Ramos B cells, compound 1 hour, IL-4 50 units/mL for 20-24 hours, anti-CD23-PE FACS; read-out: Example 2 (IC50). In short, it runs like this: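 Human Ramos B cells (5×10^4 per point, RPMI with 5% serum) pre-incubated 1 hour at 37° C with compound or DMSO, then stimulated with IL-4 at 50 units/mL final for 20-24 hours. CD23 upregulation measured by flow cytometry.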
With `CN1CCN(C(=O)c2ccc(Nc3ncc(F)c(Nc4cccc(OCC(N)=O)c4)n3)cc2)CC1` [Compound I-48, N4-(3-Aminocarbonylmethoxyphenyl)-5-fluoro-N2-[4-((4-methylpiperazin-1-yl)carbonyl)phenyl]-2,4-pyrimidinediamine], the IC50 stood at 913 nM. Same read-out and setting: the figure for `CC1(C)Oc2ccc(Nc3nc(Nc4ccc5oc(C(=O)NCCN6CCOCC6)cc5c4)ncc3F)nc2NC1=O` [Compound V-1, N4-[2,2-Dimethyl-3-oxo-4H-5-pyrido[1,4]oxazin-6-yl]-5-fluoro-N2-[2-(2-(N-morpholinyl)ethylaminocarbonyl)benzofuran-5-yl]-2,4-pyrimidinediamine] is 144 nM; for `N#CCOc1cccc(Nc2nc(Nc3ccc(C#N)cc3)ncc2F)c1` [Compound I-46, N4-(3-Cyanomethoxyphenyl)-N2-(4-cyanophenyl)-5-fluoro-2,4-pyrimidinediamine] it is 1470 nM. Still for that read-out and setting: to `N#CCOc1ccc(Nc2nc(Nc3ccc(CC#N)cc3)ncc2F)cc1F` [Compound I-103, N4-(4-Cyanomethoxy-3-fluorophenyl)-N2-(4-cyanomethylphenyl)-5-fluoro-2,4-pyrimidinediamine] belongs 82.7 nM.

For `Cc1cc(Nc2nc(Nc3cccc(C(N)=O)c3)ncc2F)cc(C)c1OCC#N` [Compound I-91, N2-(3-Aminocarbonylphenyl)-N4-(4-cyanomethoxy-3,5-dimethylphenyl)-5-fluoro-2,4-pyrimidinediamine], the IC50 turned out to be 333 nM. On the same count and under the same terms, to `C#CCOc1ccc(Nc2nc(Nc3cccc(C(N)=O)c3)ncc2F)cc1` [Compound I-6, N2-(3-Aminocarbonylphenyl)-5-fluoro-N4-[4-(2-propynyloxy)phenyl]-2,4-pyrimidinediamine] belongs 2770 nM; to `N#CCOc1cccc(Nc2nc(Nc3ccc(CC#N)cc3)ncc2F)c1` [Compound I-66, N4-(3-Cyanomethoxyphenyl)-N2-(4-cyanomethylphenyl)-5-fluoro-2,4-pyrimidinediamine], 42.2 nM; to `CCc1cc(Nc2ncc(F)c(Nc3ccc(OCC#N)cc3)n2)cc(C#N)c1Cl` [Compound I-104, N2-(4-Chloro-3-cyano-5-ethylphenyl)-N4-(4-cyanomethoxyphenyl)-5-fluoro-2,4-pyrimidinediamine], 1140 nM. As for `CC(C)(C#N)Oc1ccc(Nc2nc(Nc3ccc(CC#N)cc3)ncc2F)cc1` [Compound I-83, N4-[4-(1-Cyano-1-methylethoxy)phenyl]-N2-(4-cyanomethylphenyl)-5-fluoro-2,4-pyrimidinediamine], the IC50 worked out at 424 nM. With `NC(=O)COc1cccc(Nc2nc(Nc3cccc(C(N)=O)c3)ncc2F)c1` [Compound I-33, N4-(3-Aminocarbonylmethoxyphenyl)-N2-(3-aminocarbonylphenyl)-5-fluoro-2,4-pyrimidinediamine], the IC50 is 3050 nM. Same read-out and setting: the figure for `Cc1cc(Nc2nc(Nc3ccc(C(N)=O)cc3)ncc2F)ccc1OCC#N` [Compound I-87, N2-(4-Aminocarbonylphenyl)-N4-(4-cyanomethoxy-3-methylphenyl)-5-fluoro-2,4-pyrimidinediamine] is 44.4 nM; for `CN1CCN(c2ccc(Nc3ncc(F)c(Nc4cccc(OCC#N)c4)n3)cc2C(N)=O)CC1` [Compound I-54, N2-[3-Aminocarbonyl-4-(4-methylpiperazin-1-yl)phenyl]-N4-(3-cyanomethoxyphenyl)-5-fluoro-2,4-pyrimidinediamine] it is 19.1 nM; for `N#CCc1ccc(Nc2ncc(F)c(Nc3cccc(OCC(N)=O)c3)n2)cc1` [Compound I-65, N4-(3-Aminocarbonylmethoxyphenyl)-N2-(4-cyanomethylphenyl)-5-fluoro-2,4-pyrimidinediamine] it is 189 nM.

`Cc1nc(COc2ccc(Nc3nc(Nc4ccc(C(N)=O)cc4)ncc3F)cc2)no1` [Compound I-56, N2-(4-Aminocarbonylphenyl)-5-fluoro-N4-[4-((5-methyl-1,2,4-oxadiazol-3-yl)methoxy)phenyl]-2,4-pyrimidinediamine]: the IC50 was 91.4 nM. Still for that read-out and setting: the figure for `N#CCOc1ccc(Nc2nc(Nc3ccc(C(N)=O)cc3)ncc2F)cc1` [Compound I-27, N2-(4-Aminocarbonylphenyl)-N4-(4-cyanomethoxyphenyl)-5-fluoro-2,4-pyrimidinediamine] is 5.21 nM; for `CC(C)(C#N)Oc1ccc(Nc2nc(Nc3ccc(C(N)=O)cc3)ncc2F)cc1` [Compound I-84, N2-(4-Aminocarbonylphenyl)-N4-[4-(1-cyano-1-methylethoxy)phenyl]-5-fluoro-2,4-pyrimidinediamine] it is 148 nM; for `CNC(=O)c1cc(Nc2ncc(F)c(Nc3ccc(OCc4noc(C)n4)cc3)n2)ccc1N1CCN(C)CC1` [Compound I-63, 5-Fluoro-N2-[3-methylaminocarbonyl-4-(4-methylpiperazin-1-yl)phenyl]-N4-[4-((5-methyl-1,2,4-oxadiazol-3-yl)methoxy)phenyl]-2,4-pyrimidinediamine] it is 265 nM. The same measure, in the same setting: the figure for `Cc1cc(Nc2nc(Nc3ccc(C(N)=O)cc3)ncc2F)cc(C)c1OCC#N` [Compound I-90, N2-(4-Aminocarbonylphenyl)-N4-(4-cyanomethoxy-3,5-dimethylphenyl)-5-fluoro-2,4-pyrimidinediamine] is 91.5 nM.

Turning to `N#CCOc1ccc(Nc2nc(Nc3ccc(CC#N)cc3)ncc2F)cc1Cl` [Compound I-100, N4-(3-Chloro-4-cyanomethoxyphenyl)-N2-(4-cyanomethylphenyl)-5-fluoro-2,4-pyrimidinediamine], the IC50 came to 83 nM.

The test is the same for the next values; noted with them: human Ramos B cells, compound 1 hour, IL-4 50 units/mL for 20-24 hours, anti-CD23-PE FACS; read-out: Example 2 (IC50).
Take `Cc1cc(COc2ccc(Nc3nc(Nc4ccc(CC#N)cc4)ncc3F)cc2)no1` [Compound I-130, N2-(4-Cyanomethylphenyl)-5-fluoro-N4-[4-((5-methylisoxazol-3-yl)methyleneoxy)phenyl]-2,4-pyrimidinediamine]: the IC50 is 344 nM. The same measure, in the same setting: the figure for “N2-(3-Cyanomethoxy-4,5-dimethoxyphenyl)-N4-(2,2-dimethyl-3-oxo-4H-5-pyrido[1,4]oxazin-6-yl)-5-fluoro-2,4-pyrimidinediamine [II-16]” is 213 nM; for `CNC(=O)COc1cc(Nc2ncc(F)c(Nc3ccc4c(c3)NC(=O)C(F)(F)O4)n2)cc(OC)c1OC` [II-20, N4-(2,2-Difluoro-3-oxo-4H-benzo[1,4]oxazin-6-yl)-N2-[4,5-Dimethoxy-3-(N-methylaminocarbonylmethyleneoxy)phenyl]-5-fluoro-2,4-pyrimidinediamine] it is 480 nM. On to `CC(C#N)Oc1ccc(Nc2nc(Nc3cccc(C#N)c3)ncc2F)cc1` (stereo not shown) [Compound I-80, N4-[4-(I-Cyanoethoxy)phenyl]-N2-(3-cyanophenyl)-5-fluoro-2,4-pyrimidinediamine], for which the IC50 is 189 nM. In the case of `CNC(=O)COc1cccc(Nc2ncc(F)c(Nc3cc(OC)c(OC)c(OCC#N)c3)n2)c1` [Compound I-109, N4-(3-Cyanomethoxy-4,5-dimethoxyphenyl)-5-fluoro-N2-[3-(N-methylaminocarbonylmethyleneoxy)phenyl]-2,4-pyrimidinediamine], the half-maximal inhibitory concentration (IC50) turned out to be 660 nM. Take “N2-(4-Cyanomethyl phenyl)-5-fluoro-N4-(5-methoxycarbonylthiophen-2-yl)-2,4-pyrimidinediamine [Compound I-122]”: the IC50 is 723 nM.
